From US9176114B2, “Cell culture model for acquired chemoresistance of chronic myelogenous leukemia and related methods for identifying agents to overcome resistance” (CITY OF HOPE, priority 2007, dated 2015)
Where a name gives a salt, the structure may show the parent alone.

Tests used:
KCL-22 cells [1] = test: Resistance assay: relapse of KCL-22 cells in prolonged liquid culture (CML acquired resistance model); type: cell-based, human; conditions: for relapse of KCL-22 cells on imatinib (STI-571) in combination with the inhibitor: prolonged culture
Source text: (§1) Cells were maintained in these cultures without changing medium.
Cells were maintained in these cultures without changing medium. Aliquots of cells were taken out at specified time points and cell numbers counted using a hematocytometer. Cell viability was accessed by trypan blue exclusion where necessary.

K562 cells [2] = test: Growth factor-induced transient resistance (serum-free medium, basic supplements, insulin); type: cell-based, human
Procedure: (A) Growth curves of K562 cells in serum medium, and serum-free medium supplied with basic supplements containing 5 μg/ml insulin and 5 μg/ml transferrin (basic) with or without 75 ng/ml EGF, 25 μg/ml HDL or both (EH). […] Relative survival of imatinib treated cells was calculated by comparison to no drug treatment. Pre-incubation for two days renders resistance. […] Since sirtinol is insoluble in SF medium, HDL 25 μg/ml was added to help dissolve the drug. (D) Effects of basic supplements in serum medium. […] Viable cells were counted one and three days after the treatment. […] (F) Effects of insulin in resistance.
Whether serum-free medium supplied with select growth factors provides a better culture environment for developing CML chemoresistance was determined. Serum-free (SF) medium with insulin, transferring, epidermal growth factor (EGF) and high density lipoprotein (HDL) was used. SF medium with the basic supplements (5 μg/ml insulin and 5 μg/ml transferring) was sufficient to support growth of both K562 cells (FIG. 13A) and KCL-22 cells. […] Sirtinol is able to overcome CML resistance in SF culture.
Transient resistance conferred by insulin and transferrin supplement is of interest as insulin receptor is overexpressed in about 90% primary CML cells. The key insulin downstream target phosphatidylinositol-3 kinase (PI3K) is required for BCR-ABL mediated transformation and inhibition of PI3K-Akt-mTor pathway has been explored to overcome CML chemoresistance. SIRT1 is a key gene for regulating insulin secretion and directly regulates Akt downstream target FOXO proteins through deacetylation. Therefore, the effect of insulin itself for transient resistance to imatinib and the response of sirtinol treatment were examined.

KU-812 xenograft = conditions: relapse after 48 to 60 days; cited from earlier work
SIRT1 promoter = SIRT1 promoter assay (luciferase reporter); type: cell-based, human; conditions: KCL-22 and K562 cells
Procedure: FeOfection reagent (GENOVIS) was used to transfect 0.18 μg reporter and 0.02 μg pmaxGFP each well per the manufacturer's instruction. Six hours after transfection, cells were treated with imatinib and harvested after another 30 hs. Luciferase activity was measured using Dual-Luciferase Assay System (Promega), and normalized to GFP reading in each lysate.

SIRT1 = SIRT1 protein expression by Western blot; type: cell-based, human
Procedure: (§2) SIRT1 expression was analyzed by Western blot using 1:5000 diluted rabbit monoclonal SIRT1 antibody (Epitomics). Controls used were GAPDH or actin as loading controls with rabbit anti-GAPDH (Trevigen) or anti-actin (Sigma) at 1:5000 dilution. GAPDH [>ref|NT—009759.15|Hs12—9916:6497433-6502281 Homo sapiens chromosome 12 genomic contig, reference assembly] primers used are as follows: […]
RNA was extracted with Trizol (Invitrogen), synthesized the first strand DNA with Superscript III kit (Invitrogen), and analyzed gene expression using SYBR GreenER qPCR SuperMix kit (Invitrogen). For Western blots, rabbit monoclonal anti-human SIRT1 (Epitomics), rabbit anti-mouse SIRT1 (Upstate Biotech), mouse monoclonal anti-c-ABL (BD Pharmingen), mouse monoclonal anti-Ku70 (Neomarker), rabbit polyclonal anti-acetylated p53 (Cell Signaling) and rabbit polyclonal anti-acetylated FOXO1 (Santa Cruz Biotech) were used. To analyze Ku70 acetylation, Ku70 was pulled down from total cell lysate with anti-Ku70 and protein A-agarose beads (Upstate Biotech) followed by acetylation detection with rabbit anti-acetyl lysine antibody (Cell Signaling).

CML mice [3] = conditions: P210 BCR-ABL BALB/c model; cited from earlier work
HIC1 = HIC1 expression / SIRT1 level after HDAC and DNMT inhibitors; type: cell-based, human; conditions: KCL-22 cells, alone or in combination
Source text: Total cellular RNA with Trizol (Invitrogen) using a standard protocol. First strand DNA was synthesized and HIC1 expression by quantitative real-time RT-PCR using a kit with SYBR Green label (Invitrogen) as per the manufacture's instruction on a BioRad machine OPTICON. The following are the HIC1 primers (spanning introns), 5′-[…]-3′(exon 1a) and 5′-[…]-3′ (Exon 2). [>ref|NT—010718.15|Hs17—10875:1561637-1565694 Homo sapiens chromosome 17 genomic contig, reference assembly]
as §2

[4] = test system: SIRT1 and other sirtuin deacetylases; conditions: cited from earlier work
KCL-22 cells [5] = test: Analysis of reactive oxygen species (ROS) and DNA damage (γH2AX); type: cell-based, human; conditions: 24 h, in the presence or absence of imatinib
Procedure: ROS was analyzed using redox-sensitive fluorochrome 2′.7′-dichlorofluorescein diacetate (Sigma) as described previously (Koptyra et al. 2006). When coupled with the apoptosis analysis, cells were labeled with annexin V first and then 2′.7′-dichlorofluorescein diacetate.
Cells were pre-selected for four days in HAT medium to remove pre-existing HPRT mutations. The efficiency of HAT selection was confirmed by plating these cells on soft agar with 2.5 μg/ml 6-thioguanine, which produced zero colony. HAT-selected cells were then treated with 0.5 μM CPT for 1 hour, and then cultured for 10 days before used for soft agar clonogenic assay with 6-thioguanine selection. The rest of HAT-selected cells were cultured in medium without selection. The change of γH2AX was analyzed with γH2AX Assay Kit (Upstate Biotech).

Aurora A = test: Expression of Aurora kinases by Western blot in KCL-22M cells; type: cell-based, human; conditions: two days of drug treatment
K562 cells [6] = test: Cell growth, apoptosis (annexin V) and cell cycle analysis; type: cell-based, human
Procedure: (§3) One half million cells per well were seeded in a 24-well plate and at 2 and 4 days after initiation of drug treatment, surviving cells were counted (A, B). […] The percentage of annexin V positive cells including early and late apoptotic cells was plotted underneath FACS charts.
(§4) Cell apoptosis was analyzed with annexin V kit (BD Pharminggen) as per the manufacturer's instruction.

KCL-22 cells [7] = test: as above; type: cell-based, human
Procedure: as §3, §4

Solubility = type: physicochemical
SD1 cells = test: Resistance assay in BCR-ABL positive ALL cells; type: cell-based, human; conditions: 50 μM sirtinol alone or in combination with STI-571, prolonged culture
Procedure: as §1
The ability of sirtinol and imatinib to block resistance related to BCR-ABL mutations and non-mutants was determined in acute lymphocytic leukemia (ALL) cells.

CML mice [8] = test: Mouse bone marrow transduction/transplantation model of CML-like disease, drug treatment
AML CD34+ cells = test: Apoptosis of AML CD34+ cells; type: cell-based, human
[9] = Physiological indexes of normal BALB/c mice after 10 day treatment; type: in vivo; conditions: tenovin-6 alone or in combination with imatinib
CML CD34+ cells = test: Apoptosis and p53 acetylation in primary CML CD34+ cells; type: cell-based, human
Source text: FIG. 32 illustrates that SIRT1 inhibition enhances apoptosis of human CML progenitor cells. (A) Inhibition of SIRT1 protein expression in CML and cord blood (CB) CD34+ cells by lentivirus-mediated expression of SIRT1 shRNA. […] (C) SIRT1 inhibition in CML CD34+ cells results in increased P53 acetylation. […] (F) SIRT1 expression in CB and AML CD34+ cells.

[10] = 1 μM TSA with all dosages of STI-571
[11] = 50 μM sirtinol with 1 μM STI-571
[12] = two days treatment, PI staining

## Cc1ccc(NC(=O)c2ccc(CN3CCN(C)CC3)cc2)cc1Nc1nccc(-c2cccnc2)n1 [STI-571, Imatinib mesylate]
KCL-22 cells [1]; 1 μM STI-571
  sensitivity of KCL-22 cells to treatment: insensitive
K562 cells [2]; 1 μM STI-571, two days pre-incubation in SF medium with basic supplements
  sensitivity of K562 cells to STI-571 in SF medium: as refractory as KCL-22 cells
KU-812 xenograft
  fraction of mice relapsing on STI-571: one third
SIRT1 promoter
  SIRT1 promoter activity: significantly inhibited SIRT1 promoter activity
SIRT1; KCL-22M cells
  SIRT1 expression: did not change SIRT1 expression
SIRT1; KCL-22 and K562 cells, imatinib 48 hours
  SIRT1 protein levels: decreased in a drug concentration-dependent manner
CML mice [3]
  mice with prolonged survival on STI-571: 80%

## CC(/C=C/C(=O)NO)=C\[C@@H](C)C(=O)c1ccc(N(C)C)cc1 [TSA, trichostatin A]
KCL-22 cells [1]; [10]
  cell killing in combination with STI-571: massive apoptosis and dramatic cell killing
  relapse on TSA plus STI-571: After ten days, cells on all dosages of STI-571 relapsed
KCL-22 cells [1]; TSA at 1 μM alone
  toxicity on KCL-22 cells, inhibitor alone: little toxicity
KCL-22 cells [1]
  relapse of KCL-22 cells on imatinib (STI-571) in combination with the inhibitor: fails to block relapse
HIC1
  reactivation of HIC1 expression / reduction of SIRT1 level: could not reactivate HIC1 expression or reduce SIRT1 level
[4]
  sensitivity of SIRT1 to the inhibitor: insensitive
KCL-22M cells; 1 μM inhibitor
  growth of KCL-22M cells: no effect on cell growth
KCL-22 cells [5]
  γH2AX expression: elicited robust γH2AX induction

## CC(NC(=O)c1ccccc1/N=C/c1c(O)ccc2ccccc12)c1ccccc1 (centres unmarked) [sirtinol]
KCL-22 cells [1]
  recurrence on nilotinib or dasatinib in combination with SIRT1 inhibitor: effectively blocked the recurrence
  relapse on 1 μM Dasatinib in combination with sirtinol: blocked relapse
  relapse on […] Nilotinib in combination with SIRT1 inhibitor: blocked relapse
  relapse of KCL-22 cells on imatinib (STI-571) in combination with the inhibitor: blocks relapse
KCL-22 cells [1]; 50 μM sirtinol alone
  relapse on sirtinol alone: resulted in relapse after two weeks
KCL-22 cells [1]; listed as Sirtinol
  relapse of KCL-22 cells on imatinib (STI-571) in combination with the inhibitor: blocked relapse at all dosages of STI-571
K562 cells [2]; 50 μM sirtinol
  transient resistance to 1 μM STI-571 from basic supplements in serum medium: abolished this transient resistance
K562 cells [2]; sirtinol alone or in combination with STI-571
  transient resistance to 1 μM STI-571 from insulin: abolished this transient resistance
K562 cells [2]; sirtinol alone or with STI-571, K562 and KCL-22 cells, no relapse
  cell killing in SF culture: rapid killing
Aurora A
  Aurora A protein in KCL-22M cells: degraded
KCL-22M cells; 50 μM sirtinol with 1 μM AZA
  cell death of KCL-22M cells, combination: induced partial cell death
KCL-22M cells; sirtinol (50 μM) with STI-571 ([…])
  growth of KCL-22M cells, combination: able to inhibit cell growth
K562 cells [6]; 50 μM sirtinol alone
  cell growth: inhibited the growth
K562 cells [6]; [11]
  growth inhibition, combination: synergized their inhibitory effects
K562 cells [6]; sirtinol alone
  apoptosis (annexin V): significantly induced annexin V positive apoptotic cells
K562 cells [6]; sirtinol combined with STI-571
  apoptosis (annexin V), combination: induced more dramatic apoptosis than each individual drug
K562 cells [6]; [12]
  cell cycle: rapidly increased sub-G1 and apoptotic fraction
KCL-22 cells [7]; 50 μM sirtinol alone
  cell growth: inhibited the growth
KCL-22 cells [7]; [11]
  growth inhibition, combination: synergized their inhibitory effects
KCL-22 cells [7]; sirtinol alone
  apoptosis (annexin V): significantly induced annexin V positive apoptotic cells
KCL-22 cells [7]; sirtinol combined with STI-571
  apoptosis (annexin V), combination: induced more dramatic apoptosis than each individual drug
KCL-22 cells [7]; [12]
  cell cycle: reducing S/G2 and increasing sub-G1 population
Solubility
  effective concentration in vivo (limited by solubility): not obtainable in vivo
Solubility; serum-free medium
  solubility in SF medium: insoluble
SD1 cells
  effect of sirtinol on SD1 cells: eliminated these cells

## CN(C)CCCCC(=O)Nc1ccc(NC(=S)NC(=O)c2ccc(C(C)(C)C)cc2)cc1 [tenovin-6]
KCL-22 cells [1]
  lowest dose that blocked relapse on imatinib: 1 µM
  recurrence on nilotinib or dasatinib in combination with SIRT1 inhibitor: effectively blocked the recurrence
  relapse on […] Nilotinib in combination with SIRT1 inhibitor: blocked relapse
  relapse of KCL-22 cells on imatinib (STI-571) in combination with the inhibitor: blocks relapse
KCL-22 cells [1]; 1 μM tenovin-6
  relapse on 1 μM Dasatinib in combination with tenovin-6: delayed the relapse
KCL-22 cells [1]; 5 μM tenovin-6
  relapse on 1 μM Dasatinib in combination with tenovin-6: blocked relapse
CML mice [8]; 50 mg/kg/day, 10 days from day 10 after transplantation
  CML mouse survival: significantly extended CML mouse survival
CML mice [8]; tenovin-6 with imatinib
  CML mouse survival, combination: longest survivors
AML CD34+ cells
  apoptosis of AML CD34+ cells: induced apoptosis
[9]
  toxicity: No noticeable toxicity
CML CD34+ cells
  P53 acetylation in CML CD34+ cells: enhanced P53 acetylation
  apoptosis of primitive CML CD34+CD38- progenitors incl. quiescent fraction: increased apoptosis
Solubility
  water solubility: water soluble
